Data: patent publication US7553642B2, “Branched neutral amino acid transporters acting as single molecule” (Human Cell Systems, Inc., priority 2003, dated 2009)

What was measured:
Format in all cases: cell-based
mouse LAT4 = biological target: T1, mouse LAT4 (Mus musculus, UniProt Q8CGA3, K402E/P237S); test: Uptake of radiolabeled amino acids by Xenopus oocytes injected with mouse LAT4 cRNA
T1 construct: An expression plasmid vector pcDNA 3.1(+) containing cDNA of mouse LAT4 was cleaved by a restriction enzyme XbaI; expressed in transfected cells; host or cells: Xenopus laevis oocytes injected with cRNA (from pcDNA3.1(+), IMAGE clone 2235970)
Experimental: The oocytes was injected with 25 ng of cRNA of the mouse LAT4 gene to be expressed thereby, and cultured for 3 days.
An experiment of leucine uptake was carried out as follows according to the above-described method in Example 3 (1). That is, the oocytes injected with cRNA of the mouse LAT4 gene or water as a control were cultured for 10 minutes in the Na^+-free uptake solution containing […] (100 μM) (refer to Example 3 (1)), and measured the uptake of radioactivity into the cells.
The leucine uptake was conducted at the leucin concentrations of 0.01, 0.03, 0.1, 0.3, 1, 3 and 10 mM, using the oocytes injected with cRNA of the mouse LAT4 gene according to the above-described method in Example 3 (1). […] In addition, it was clarified that the leucine transport mediated by LAT4 is composed of a high affinity component and a low affinity component, just like the leucin uptake mediated by LAT3.
An uptake experiment of various amino acids and amino acid analogs was carried out using the oocytes injected with cRNA of the mouse LAT4 gene according to the above-described method in Example 3 (1). In this regard, in place of ^14C-leucine, various radiolabeled amino acids were utilized.

human LAT4 = biological target: T2, human LAT4 (Homo sapiens, UniProt Q8N370); test: Leucine uptake by oocytes injected with human LAT4 cRNA; conditions: 14C-L-leucine, method of Example 3 (1)
T2 construct: expressed in transfected cells; host or cells: Xenopus laevis oocytes injected with cRNA (IMAGE clone 2783525)
Experimental: The cDNA of human LAT4 gene obtained by Example 4 was cleaved at XhoI site, and the cRNA was prepared using T3 RNA polymerase. The cRNA of the human LAT4 gene was expressed in the oocytes and the ^14C-L-leucine uptake was measured.
The oocytes was injected with 25 ng of cRNA of the human LAT4 gene, and cultured for […]. Experiment of the leucine uptake by the oocytes injected with cRNA of the human LAT4 gene was carried out according to the method of Example 3 (1).

human LAT3 [1] = biological target: T3, human LAT3 (Homo sapiens, UniProt O75387); test: 14C-leucine efflux from preloaded oocytes injected with human LAT3 cRNA; conditions: preloaded 100 nl of 400 μM 14C-leucine; absence of extracellular leucine; Na+-free; room temperature
T3 construct: An expression plasmid vector pSPORT1 containing cDNA of human LAT3 was cleaved by a restriction enzyme NotI, and cRNA; expressed in transfected cells; host or cells: Xenopus laevis oocytes injected with cRNA
T3 sequence (O75387 1-559): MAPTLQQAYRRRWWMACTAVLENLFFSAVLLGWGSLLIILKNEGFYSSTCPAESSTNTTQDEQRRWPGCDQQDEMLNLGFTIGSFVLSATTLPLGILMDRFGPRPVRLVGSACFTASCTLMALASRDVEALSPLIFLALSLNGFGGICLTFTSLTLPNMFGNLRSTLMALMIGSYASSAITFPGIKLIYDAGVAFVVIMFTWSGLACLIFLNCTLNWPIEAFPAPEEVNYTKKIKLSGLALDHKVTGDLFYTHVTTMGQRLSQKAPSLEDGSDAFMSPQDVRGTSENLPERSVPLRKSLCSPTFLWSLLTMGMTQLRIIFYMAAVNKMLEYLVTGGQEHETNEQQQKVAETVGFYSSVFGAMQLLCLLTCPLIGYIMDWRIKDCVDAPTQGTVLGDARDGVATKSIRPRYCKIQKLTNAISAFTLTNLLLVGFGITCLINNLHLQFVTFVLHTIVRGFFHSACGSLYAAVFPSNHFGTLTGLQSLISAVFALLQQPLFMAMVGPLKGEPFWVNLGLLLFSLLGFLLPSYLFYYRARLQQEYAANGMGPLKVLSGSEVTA
Experimental: The oocytes injected with cRNA of the human LAT3 gene was injected with 100 nl of 400 μM ^14C-leucine (2 nCi). After washing the oocytes with the leucine-free and Na^+-free uptake solution which was previously cooled with ice, the oocytes were transferred to the Na^+-free uptake solution with or without leucine (1 mM) at room temperature (18 to 22° C.), then efflux of ^14C-leucine was measured. As a control, 100 nl of 400 μM ^14C-leucine (2 nCi) was injected into the oocytes injected with water instead of cRNA of the human LAT3 gene, and the extracellular efflux of ^14C-leucine was measured by the same procedures as described above.

human LAT3 [2] = biological target: T3, human LAT3; test: Uptake of radiolabeled amino acids by Xenopus oocytes injected with human LAT3 cRNA
Experimental: The substrate uptake by the injected oocytes using leucine as a substrate was carried out according to the method described by Kanai et al. (Kanai and Hediger, Nature, Vol. 360, 467-471 (1992)), as follows. The oocytes was cultured for 30 minutes in the Na^+-free uptake solution (100 mM of choline chloride, 2 mM of potassium chloride, 1.8 mM of calcium chloride, 1 mM of magnesium chloride, 5 mM of HEPES, pH 7.4) using ^14C-leucine (100 μM) as a substrate, and uptake rate of the substrate was measured by counting radioactivity in the cell.
The oocytes was injected with 25 ng of human LAT3 gene cRNA to be expressed thereby, and cultured for 3 days.
The experiment of the leucine uptake was carried out as follows according to the above described method in Example 1 (1). That is, the oocytes injected with the cRNA of the human LAT3 gene or water as a control were cultured for 10 minutes in Na^+-free uptake solution containing ^14C-leucine (100 μM) (refer to Example 1 (1)), and measured uptake of radioactivity into the cells.
The leucine uptake was conducted at the leucin concentrations of 1, 3, 10, 30, 60, 100, 200, 400, 1000, 2000 and 3000 μM using the oocytes injected with cRNA of the human LAT3 gene according to the above-described method in Example 3 (1). […] In addition, it was clarified that the leucine transport mediated by LAT3 is composed of high affinity component and low affinity component (FIG. 6, inserted figure).
An uptake experiment of various amino acids and amino acid analogs was carried out using the oocytes injected with cRNA of the human LAT3 gene according to the above-described method in Example 3 (1), provided that various radiolabeled amino acids were utilized in place of the ^14C-leucine.

mouse LAT3 = biological target: T4, mouse LAT3 (Mus musculus, UniProt Q8BSM7); test: Leucine uptake by oocytes injected with mouse LAT3 cRNA; conditions: 14C-L-leucine, method of Example 3 (1)
T4 construct: expressed in transfected cells; host or cells: Xenopus laevis oocytes injected with cRNA (IMAGE clone 4910149)
Experimental: The cDNA of mouse LAT3 obtained by Example 2 was cleaved at NotI site, and cRNA was prepared using SP6 RNA polymerase. The cRNA of the mouse LAT3 gene was expressed in the oocytes and the ^14C-L-leucine uptake was measured.
The oocytes was injected with 25 ng of cRNA of the mouse LAT3 gene to be expressed thereby, and cultured for 3 days. An experiment of the leucine uptake by the oocytes injected with cRNA of the mouse LAT3 gene was carried out according to the method in Example 3 (1).

[3] = 14C-leucine 100 μM, Na+-free uptake solution, 10 minutes

T1 sequence (Q8CGA3 whole entry P237S/K402E): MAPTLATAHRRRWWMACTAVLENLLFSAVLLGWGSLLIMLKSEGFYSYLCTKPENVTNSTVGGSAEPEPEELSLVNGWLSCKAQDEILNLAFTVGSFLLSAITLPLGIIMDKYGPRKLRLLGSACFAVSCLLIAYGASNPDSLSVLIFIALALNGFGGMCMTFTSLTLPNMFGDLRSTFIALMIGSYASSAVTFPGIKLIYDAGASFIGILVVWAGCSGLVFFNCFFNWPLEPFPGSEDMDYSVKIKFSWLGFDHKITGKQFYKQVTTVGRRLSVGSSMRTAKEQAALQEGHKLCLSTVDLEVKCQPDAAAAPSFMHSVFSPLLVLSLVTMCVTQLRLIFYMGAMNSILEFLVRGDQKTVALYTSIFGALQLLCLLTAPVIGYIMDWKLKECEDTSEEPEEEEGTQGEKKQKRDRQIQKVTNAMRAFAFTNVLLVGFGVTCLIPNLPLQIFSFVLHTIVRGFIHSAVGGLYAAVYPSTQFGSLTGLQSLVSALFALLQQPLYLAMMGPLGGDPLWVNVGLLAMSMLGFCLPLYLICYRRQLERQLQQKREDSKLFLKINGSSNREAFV
T4 sequence (Q8BSM7 whole entry): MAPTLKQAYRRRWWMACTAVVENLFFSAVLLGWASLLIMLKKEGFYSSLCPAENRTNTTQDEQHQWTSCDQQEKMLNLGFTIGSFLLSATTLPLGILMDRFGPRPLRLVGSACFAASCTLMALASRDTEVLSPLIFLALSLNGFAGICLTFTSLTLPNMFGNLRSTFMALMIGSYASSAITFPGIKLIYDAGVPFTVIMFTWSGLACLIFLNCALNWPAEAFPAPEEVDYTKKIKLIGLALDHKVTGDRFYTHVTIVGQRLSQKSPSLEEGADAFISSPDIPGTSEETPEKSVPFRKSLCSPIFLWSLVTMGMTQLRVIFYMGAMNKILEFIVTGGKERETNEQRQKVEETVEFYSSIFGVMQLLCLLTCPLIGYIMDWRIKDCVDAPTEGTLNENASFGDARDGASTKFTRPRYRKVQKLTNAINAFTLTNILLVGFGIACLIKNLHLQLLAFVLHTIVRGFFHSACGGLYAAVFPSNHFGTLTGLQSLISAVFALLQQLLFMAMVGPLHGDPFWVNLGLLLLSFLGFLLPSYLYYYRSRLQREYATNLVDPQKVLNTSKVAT
T2 sequence (Q8N370 1-573 isoform Q8N370-3): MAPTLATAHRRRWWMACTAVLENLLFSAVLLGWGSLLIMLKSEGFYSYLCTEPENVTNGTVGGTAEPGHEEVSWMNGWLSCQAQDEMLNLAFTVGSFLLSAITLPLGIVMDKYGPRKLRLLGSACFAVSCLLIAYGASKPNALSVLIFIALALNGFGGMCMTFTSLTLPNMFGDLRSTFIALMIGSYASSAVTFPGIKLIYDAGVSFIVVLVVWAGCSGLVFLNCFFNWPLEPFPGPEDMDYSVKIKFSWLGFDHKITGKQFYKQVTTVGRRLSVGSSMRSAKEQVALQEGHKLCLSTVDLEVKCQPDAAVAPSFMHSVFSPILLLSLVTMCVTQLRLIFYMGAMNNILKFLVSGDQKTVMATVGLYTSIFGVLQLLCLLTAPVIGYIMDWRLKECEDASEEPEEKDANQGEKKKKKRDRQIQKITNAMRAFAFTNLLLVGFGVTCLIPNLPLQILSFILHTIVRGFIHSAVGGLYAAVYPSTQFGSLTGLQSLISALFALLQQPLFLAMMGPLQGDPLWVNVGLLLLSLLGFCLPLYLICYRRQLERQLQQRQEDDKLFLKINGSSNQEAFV

For `CC(C)C[C@H](N)C(=O)O` [L-leucine], the “uptake of radiolabeled substrate into oocytes expressing mouse LAT4” value (mouse LAT4; 14C-labeled substrate in place of 14C-leucine) was “a large amount of uptake”, the “leucine uptake in oocytes expressing mouse LAT4 compared with water-injected” value (mouse LAT4; [3]) was “significant augmentation” and the “concentration dependence of leucine uptake (mouse LAT4)” value (mouse LAT4; leucine 0.01 to 10 mM) was “concentration-dependent and saturable”. For the same compound, the “leucine uptake in oocytes expressing human LAT4 compared with water-injected” value (human LAT4) was “significant augmentation”, the “efflux of 14C-leucine from oocytes expressing human LAT3” value (human LAT3 [1]) was “significant efflux” and the “uptake of radiolabeled substrate into oocytes expressing human LAT3” value (human LAT3 [2]; 14C-labeled substrate in place of 14C-leucine, Na+-free uptake solution, 10 minutes) was “a large amount of uptake”. For the same compound, the “leucine uptake in oocytes expressing LAT3 compared with water-injected” value (human LAT3 [2]; [3]) was “significant augmentation”, the “concentration dependence of leucine uptake (human LAT3)” value (human LAT3 [2]; leucine 1 to 3000 μM) was “concentration-dependent and saturable” and the “leucine uptake in oocytes expressing mouse LAT3 compared with water-injected” value (mouse LAT3) was “significant augmentation”.
